Like-named read-outs stand apart in the source and are kept apart here.
How the values were obtained:
[1] = test system: THLE or HepG2 cells, isolated mitochondria, BSEP; conditions: cited from earlier work
[2] = test system: HepaRG spheroids
[3] = test system: human hepatocytes; conditions: cited from earlier work
[4] = test system: PHH; conditions: cited from earlier work
[5] = test system: hLiMTs
Experimental: (§1) 3D spheroid models consisting of either primary human hepatocytes with non-parenchymal cells (hLiMT’s) or HepaRG cells (HepaRG spheroids) were assessed for size (MS), oxidative stress (OS), MMP, mitochondrial mass (MM), GSH and cellular ATP content following drug exposure. Fluorescent images are acquired using the confocal mode of an ArrayScan™ XTI HCI reader (ThermoScientific) following which cellular ATP was measured using 3D CellTiter-Glo (Promega).

[6] = test system: HepG2 C3A spheroid, BSEP, Glu/Gal in HepG2 cells, bioactivation; conditions: cited from earlier work
[7] = Plasma free fraction (fu) and unbound Cmax (Cmax,u); format: in vitro ADME, human; conditions: unbound plasma Cmax
Experimental: The prediction of DILI severity was evaluated further using the 3D combined HCI assays using plasma-free fraction. The majority of fu values were obtained from literature, when unavailable in-house prediction was utilised. Unbound plasma Cmax concentrations (Cmax,u) were derived by multiplying total plasma Cmax with the corresponding free fraction (fu) for each compound.

[8] = test system: hLiMTs; assay: Combined HCI (HCS) and cellular ATP 3D assay in hLiMTs; conditions: for hLiMTs <25x Avg Cmax ATP / hLiMTs <100x Avg Cmaxu ATP: ATP endpoint; for hLiMTs <25x Avg Cmax ATP / hLiMTs <25x Avg Cmax HCS / hLiMTs <25x Avg Cmax All: cut-off <25x Avg Cmax; for hLiMTs <100x Avg Cmaxu ATP / hLiMTs <100x Avg Cmaxu HCS / hLiMTs <100x Avg Cmaxu All: cut-off <100x Avg Cmaxu; for hLiMTs <25x Avg Cmax HCS / hLiMTs <100x Avg Cmaxu HCS: HCS endpoints; for hLiMTs <25x Avg Cmax All: all endpoints (ATP and HCS); for hLiMTs Cmax max All / hLiMTs Cmax min All / hLiMTs <10 uM All / hLiMTs <100x Avg Cmaxu All: all endpoints; for hLiMTs Cmax max All: Cmax max used; for hLiMTs Cmax min All: Cmax min used; for hLiMTs <10 uM All: cut-off <10 uM
Experimental: as §1

[9] = plasma free fraction; cited from earlier work
[10] = cited from earlier work
[11] = test system: HepaRG spheroids; assay: Combined HCI (HCS) and cellular ATP 3D assay in HepaRG spheroids; conditions: HepaRG; for HepaRG <25x Avg Cmax ATP / HepaRG <100x Avg Cmaxu ATP: ATP endpoint; for HepaRG <25x Avg Cmax ATP / HepaRG <25x Avg Cmax HCS / HepaRG <25x Avg Cmax All: cut-off <25x Avg Cmax; for HepaRG <100x Avg Cmaxu ATP / HepaRG <100x Avg Cmaxu HCS / HepaRG <100x Avg Cmaxu All: cut-off <100x Avg Cmaxu; for HepaRG <25x Avg Cmax HCS / HepaRG <100x Avg Cmaxu HCS: HCS endpoints; for HepaRG <25x Avg Cmax All: all endpoints (ATP and HCS); for HepaRG Cmax max All / HepaRG Cmax min All / HepaRG <10 uM All / HepaRG <100x Avg Cmaxu All: all endpoints; for HepaRG Cmax max All: Cmax max used; for HepaRG Cmax min All: Cmax min used; for HepaRG <10 uM All: cut-off <10 uM; for minimal effective concentration: Homo sapiens
[12] = read-out: Human plasma Cmax; total plasma Cmax.tot, median of 9 literature references; cited from earlier work
[13] = test system: hLiMTs; conditions: cited from earlier work
[14] = test system: PHH spheroids; conditions: cited from earlier work
[15] = cited from earlier work; remark: listed apart in the source
[16] = test system: HepG2 cells; conditions: cited from earlier work
[17] = test system: THLE-Null and THLE-3A4 cells; conditions: In vitro Assay; ref Gustafsson 2014; cited from earlier work
[18] = test system: rBsep; conditions: In vitro Assay; ref Dawson 2012; cited from earlier work
[19] = test system: HepG2 cells; conditions: cited from earlier work; remark: listed apart in the source
[20] = 2D PHH, ATP, IC50 threshold 100 µM, ref Proctor et al. 2017
[21] = In vitro Assay, ref Proctor 2017
[22] = In vitro Assay, ref Persson 2013
[23] = hLiMTs, ATP, IC50 threshold 100 µM, ref Proctor et al. 2017
[24] = Chen et al. 2016 or literature alignment, ref Chen et al. 2016

CC(COc1ccccc1)N(CCCl)Cc1ccccc1 (stereo not drawn) [phenoxybenzamine]
Partition Hybrid HRM Score [1]: +VE
Partition Hybrid HRM Score ≥4, Aleo (2019) [1]: +VE (key: +VE: Partition Hybrid HRM Score ≥4)
Partition Hybrid HRM Score ≥8, Aleo (2019) [1]: -VE
Ro2 Hybrid HRM Score [1]: +VE
Rule of Two hybrid HRM Score ≥3, Aleo (2019) [1]: +VE (key: +VE: Rule of Two hybrid HRM Score ≥3)
Rule of Two hybrid HRM Score ≥8, Aleo (2019) [1]: -VE
DILI prediction HepaRG spheroids (HCS-MEC) [2]: -VE
DILI in vitro assay prediction, Xu (2008) [3]: -VE
Structural based (HCI) [3]: -VE
PHH ATP <100uM [4]: -VE
PHH/100uM, Proctor (2017) [4]: -VE
PHH/100xCmax, Proctor (2017) [4]: -VE
DILI prediction hLiMTs (HCS-MEC) [5]: -VE
Bayesian Machine Learning [6]: -VE
Bayesian Machine Learning DILI prediction, Williams (2019) [6]: -VE
Human plasma Cmax,u [7]: 2 nM
AC50 ([8]; Homo sapiens, read-out: ATP endpoint AC50): 26.9 µM
minimal effective concentration ([8]; Homo sapiens, read-out: ATP endpoint MEC): 10.7 µM
minimal effective concentration ([8]; Homo sapiens, read-out: HCS endpoint MEC): 15.6 µM
hLiMTs <25x Avg Cmax ATP [8]: -ve
hLiMTs <100x Avg Cmaxu ATP [8]: -ve
hLiMTs <25x Avg Cmax HCS [8]: -ve
hLiMTs <100x Avg Cmaxu HCS [8]: -ve
hLiMTs <25x Avg Cmax All [8]: -ve
hLiMTs Cmax max All [8]: -ve
hLiMTs Cmax min All [8]: -ve
hLiMTs <10 uM All [8]: -ve
hLiMTs <100x Avg Cmaxu All [8]: -ve
fu [9]: 0.009
DILI +VE (5-8), DILI -VE (-4) ([10]; in vivo): -VE
DILI severity category (Chen et al. [2016]) ([10]; in vivo): No
HepaRG <25x Avg Cmax ATP [11]: -ve
HepaRG <100x Avg Cmaxu ATP [11]: -ve
HepaRG <25x Avg Cmax HCS [11]: -ve
HepaRG <100x Avg Cmaxu HCS [11]: -ve
HepaRG <25x Avg Cmax All [11]: -ve
HepaRG Cmax max All [11]: -ve
HepaRG Cmax min All [11]: -ve
HepaRG <10 uM All [11]: -ve
HepaRG <100x Avg Cmaxu All [11]: -ve
minimal effective concentration ([11]; read-out: ATP endpoint MEC): 25.3 µM
minimal effective concentration ([11]; read-out: HCS endpoint MEC): 53.8 µM
Cmax [12]: 197 nM
hLiMTs ATP <100uM [13]: -VE
hLiMTs/100uM, Proctor (2017) [13]: -VE
hLiMTs/100xCmax, Proctor (2017) [13]: -VE
DILI in vitro assay prediction, Vorrink (2018) [14]: -VE
hLiMTs ATP <20 x Cmax [14]: -VE
Assigned DILI category ([15]; in vivo): 1
In vivo DILI ([15]; in vivo): -VE

CCOC(=O)c1ncn2c1CN(C)C(=O)c1cc(F)ccc1-2 [flumazenil, reference compound]
Structural based (HCI) ([16]; In vitro Assay, ref O'Brien 2006): -VE
DILI in vitro assay prediction, O'Brien (2006) ([16]; Structural based (HCI), HepG2, ref O'Brien et al. 2006): -VE
DILI prediction HepaRG spheroids (HCS-MEC) [2]: -VE
THLE-Null [17]: -VE
Structural based (HCI) ([3]; In vitro Assay, ref Xu 2008): -VE
DILI in vitro assay prediction, Xu (2008) ([3]; Structural based (HCI), human hepatocytes, ref Xu et al. 2008): -VE
Inhibition of rBsep cutoff<1& cmax u>.2 [18]: -VE
Inhibition of rBsep cutoff<3 [18]: -VE
PHH/100uM, Proctor (2017) [4, 20]: -VE
PHH ATP <100uM [4, 21]: -VE
DILI prediction hLiMTs (HCS-MEC) [5]: -VE
Human plasma Cmax,u [7]: 650 nM
Cluser analysis [19, 22]: -VE
Structural based (HCI) [19, 22]: -VE
DILI in vitro assay prediction, Persson (2013) ([19]; Structural based (HCI), HepG2, ref Persson et al. 2013): -VE
hLiMTs <25x Avg Cmax ATP [8]: -ve
hLiMTs <25x Avg Cmax HCS [8]: -ve
hLiMTs <25x Avg Cmax All [8]: -ve
hLiMTs Cmax max All [8]: -ve
hLiMTs Cmax min All [8]: -ve
hLiMTs <10 uM All [8]: -ve
fu [9]: 0.580
DILI severity category (Chen et al. [2016]) ([10]; LTKB DILIrank category, ref Chen et al. 2016): No
DILI severity category (Chen 2016) ([10]; human DILI classification, LTKB DILIrank, ref Chen et al. 2016): No
DILI severity category ([10]; human DILI severity, ref Chen et al.): No
DILI +VE (5-8), DILI -VE (-4) ([10]; ref Chen 2016): -VE
DILI severity category ([10]; ref Chen 2016): vNo-DILI-Concern
HepaRG <25x Avg Cmax ATP [11]: -ve
HepaRG <25x Avg Cmax HCS [11]: -ve
HepaRG <25x Avg Cmax All [11]: -ve
HepaRG Cmax max All [11]: -ve
HepaRG Cmax min All [11]: -ve
HepaRG <10 uM All [11]: -ve
Cmax [12]: 1120 nM
hLiMTs ATP <100uM [13, 21]: -VE
hLiMTs/100uM, Proctor (2017) [13, 23]: -VE
hLiMTs ATP <20 x Cmax ([14]; In vitro Assay, ref Vorrink 2018): -VE
DILI in vitro assay prediction, Vorrink (2018) ([14]; PHH spheroids, ATP, 14 days, IC20 < 20 × Cmax.tot, ref Vorrink et al. 2018): -VE
Assigned DILI category [15, 24]: 1
In vivo DILI ([15]; ref Dawson 2012): -VE
In vivo DILI ([15]; ref Gustafsson 2014): -VE
In vivo DILI ([15]; ref O'Brien 2006): -VE
In vivo DILI ([15]; ref Persson 2013): -VE
In vivo DILI ([15]; ref Proctor 2017): -VE
In vivo DILI ([15]; ref Vorrink 2018): -VE
In vivo DILI ([15]; ref Williams 2019): -VE
In vivo DILI ([15]; ref Xu 2008): -VE

CN(C)C(=O)Oc1cccc([N+](C)(C)C)c1 [neostigmine]
DILI prediction HepaRG spheroids (HCS-MEC) [2]: -VE
PHH/100uM, Proctor (2017) [4, 20]: -VE
PHH ATP <100uM [4, 21]: -VE
PHH/100xCmax, Proctor (2017) [4]: -VE
DILI prediction hLiMTs (HCS-MEC) [5]: -VE
Bayesian Machine Learning DILI prediction, Williams (2019) ([6]; Bayesian modeling, ref Williams et al. 2019): -VE
Bayesian Machine Learning ([6]; ref Williams 2019): -VE
Human plasma Cmax,u [7]: 36 nM
hLiMTs <25x Avg Cmax ATP [8]: -ve
hLiMTs <100x Avg Cmaxu ATP [8]: -ve
hLiMTs <25x Avg Cmax HCS [8]: -ve
hLiMTs <100x Avg Cmaxu HCS [8]: -ve
hLiMTs <25x Avg Cmax All [8]: -ve
hLiMTs Cmax max All [8]: -ve
hLiMTs Cmax min All [8]: -ve
hLiMTs <10 uM All [8]: -ve
hLiMTs <100x Avg Cmaxu All [8]: -ve
fu [9]: 0.800
HepaRG <25x Avg Cmax ATP [11]: -ve
HepaRG <100x Avg Cmaxu ATP [11]: -ve
HepaRG <25x Avg Cmax HCS [11]: -ve
HepaRG <100x Avg Cmaxu HCS [11]: -ve
HepaRG <25x Avg Cmax All [11]: -ve
HepaRG Cmax max All [11]: -ve
HepaRG Cmax min All [11]: -ve
HepaRG <10 uM All [11]: -ve
HepaRG <100x Avg Cmaxu All [11]: -ve
Cmax [12]: 45 nM
hLiMTs ATP <100uM [13, 21]: -VE
hLiMTs/100xCmax, Proctor (2017) [13]: -VE
hLiMTs/100uM, Proctor (2017) [13, 23]: -VE
Assigned DILI category [15, 24]: 1
In vivo DILI ([15]; […]): -VE
In vivo DILI ([15]; ref Proctor 2017): -VE
In vivo DILI ([15]; ref Williams 2019): -VE

— PMC7395068, “The evolution of strategies to minimise the risk of human drug-induced liver injury (DILI) in drug discovery and development” (Archives of Toxicology, 2020)
